Results reported in patent US11851428B2, “Activator of TREK (TWIK RElated K+channels) channels” (ONO PHARMACEUTICAL CO., LTD., priority 2016, dated 2023).

What follows are compounds tested against T1, human TREK-1 (Homo sapiens, UniProt O95069) (assay: thallium flux assay (TREK1 activation normalized to BL-1249)). Conditions: concentration of Example compound 10 μM; normalized to 10 μM BL-1249; CHO-K1 cells stably expressing human TREK-1.
T1 construct: expressed in transfected cells
T1 sequence (O95069 1-426): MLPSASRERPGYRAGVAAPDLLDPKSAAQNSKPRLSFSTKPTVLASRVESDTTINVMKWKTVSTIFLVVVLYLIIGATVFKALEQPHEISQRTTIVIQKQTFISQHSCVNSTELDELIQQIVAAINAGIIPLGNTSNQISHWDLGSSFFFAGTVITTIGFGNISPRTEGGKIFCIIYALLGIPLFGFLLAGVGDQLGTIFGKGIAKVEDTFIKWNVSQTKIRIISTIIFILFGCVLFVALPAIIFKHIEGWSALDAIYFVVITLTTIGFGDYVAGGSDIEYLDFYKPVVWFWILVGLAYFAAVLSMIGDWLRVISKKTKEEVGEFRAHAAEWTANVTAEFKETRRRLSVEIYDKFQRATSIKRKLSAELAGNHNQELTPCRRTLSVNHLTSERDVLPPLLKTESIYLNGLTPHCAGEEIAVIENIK
Format: cell-based
Method: The term “thallium flux assay” herein refers to a fluorescence-based assay used to monitor the activity of TREK channels. Thallium is a congener of potassium that readily fluxes through the pore of TREK channels. Thallium flux is measured using a commercially available, thallium-sensitive fluorescent dye called Thallos. The detail method is described below.
Method 1 (Thallium Flux Assay);
CHO-K1 cells stably expressing human TREK-1 or HEK293 cells stably expressing human TREK-2 are plated in 384-well plates, cultured overnight, loaded with Thallos dye the following day, treated with test compounds for 10 min, and then treated with thallium stimulus buffer to initiate thallium flux. The change in fluorescence at 25 seconds after thallium addition is normalized to baseline fluorescence (fluorescent intensity at 25 sec after Tl^+ addition)/(average of fluorescent intensity at pre-read).

Compared with `O=C(NCc1ccc(OC(F)(F)F)cc1)c1ccc(-c2nccs2)cc1` [Example 2-9, 4-(1,3-thiazol-2-yl)-N-+4-(trifluoromethoxy)benzyl+benzamide], `COc1cc(OC(F)(F)F)ccc1CNC(=O)c1ccc(-c2ccccn2)nc1` [Example 2-29] is higher in “TREK1 activation RBL-1249 (%)” value: 25% for the first, 51% for the second.

Same assay, conditions: concentration of Example compound 10 μM; normalized to 10 μM BL-1249; CHO-K1 cells stably expressing human TREK-1; read-out: TREK1 activation RBL-1249 (%)

Going from `Cc1cc(OC(F)(F)F)ccc1CNC(=O)c1ccn2ccnc2c1` [Example 1-87, N-[[2-methyl-4-(trifluoromethoxy)phenyl]methyl]imidazo[1,2-a]pyridine-7-carboxamide] to `N#Cc1cc(OC(F)(F)F)ccc1CNC(=O)c1ccc2ncnn2c1` [Example 1-89, N-[[2-cyano-4-(trifluoromethoxy)phenyl]methyl]-[1,2,4]triazolo[1,5-a]pyridine-6-carboxamide], the activation at 10 µM falls from 72% to 70%.

First: O=C(NCc1ccc(OC(F)F)cc1Cl)c1ccc2ncnn2c1 [Example 1-92, N-[[2-chloro-4-(difluoromethoxy)phenyl]methyl]-[1,2,4]triazolo[1,5-a]pyridine-6-carboxamide]
Second: O=C(NCc1ccc(C(F)(F)F)cc1Cl)c1ccc(-c2nc[nH]n2)cc1 [Example 2-26, N-[2-chloro-4-(trifluoromethyl)benzyl]-4-(1H-1,2,4-triazol-3-yl)benzamide]
The activation at 10 µM of the first is lower: 70% for the first, 76% for the second.

First: COc1cc(OC(F)(F)F)ccc1CNC(=O)c1ccc(-n2cncn2)cc1 [Example 2-1, N-[2-methoxy-4-(trifluoromethoxy)benzyl]-4-(1H-1,2,4-triazol-1-yl)benzamide]
Second: O=C(NCc1ccc(OC(F)(F)F)cc1F)c1ccc(-n2cncn2)cc1 [Example 2-16, N-[2-fluoro-4-(trifluoromethoxy)benzyl]-4-(1H-1,2,4-triazol-1-yl)benzamide]
The activation at 10 µM of the first is higher: 54% for the first, 46% for the second.

Compared with `O=C(NCc1ccc(S(F)(F)(F)(F)F)cc1)c1ccc(-n2cncn2)cc1` [Example 2-2, N-[4-(pentafluoro-λ^6-sulfanyl)benzyl]-4-(1H-1,2,4-triazol-1-yl)benzamide], `O=C(NCc1ccc(SC(F)(F)F)cc1)c1ccc(-n2cncn2)cc1` [Example 2-18, 4-(1H-1,2,4-triazol-1-yl)-N-{4-[(trifluoromethyl)thio]benzyl}benzamide] is lower in activation at 10 µM: 41% for the first, 39% for the second.

Going from `O=C(NCc1ccc(OC(F)(F)F)c(F)c1)c1ccc(-n2cncn2)cc1` [Example 2-3, N-[3-fluoro-4-(trifluoromethoxy)benzyl]-4-(1H-1,2,4-triazol-1-yl)benzamide] to `O=C(NCc1ccc(OC(F)(F)F)c(F)c1)c1ccc(-c2nc[nH]n2)cc1` [Example 2-22, N-[3-fluoro-4-(trifluoromethoxy)benzyl]-4-(1H-1,2,4-triazol-3-yl)benzamide], the activation at 10 µM falls from 72% to 66%.

Going from `O=C(NCc1ccc(OC(F)(F)F)cc1)c1ccc(-c2cnco2)cc1` [Example 2-6, 4-(1,3-oxazol-5-yl)-N-[4-(trifluoromethoxy)benzyl]benzamide] to `O=C(NCc1ccc(OC(F)(F)F)cc1)c1ccc(-c2cnc[nH]2)cc1` [Example 2-10, 4-(1H-imidazol-5-yl)-N-[4-(trifluoromethoxy)benzyl]benzamide], the activation at 10 µM rises from 32% to 46%.

Compared with `O=C(NCc1ccc(OC(F)(F)F)cc1)c1ccc(-c2nnco2)cc1` [Example 2-12, 4-(1,3,4-oxadiazol-2-yl)-N-[4-(trifluoromethoxy)benzyl]benzamide], `O=C(NCc1ccc(OC(F)(F)F)cc1F)c1ccc(-c2ncn[nH]2)cc1` [Example 2-24, N-[2-fluoro-4-(trifluoromethoxy)benzyl]-4-(1H-1,2,4-triazol-5-yl)benzamide] is higher in activation at 10 µM: 29% for the first, 69% for the second.

First: COc1cc(OC(F)(F)F)ccc1CNC(=O)c1ccc(-c2nc[nH]n2)cc1 [Example 2-25, N-[2-methoxy-4-(trifluoromethoxy)benzyl]-4-(1H-1,2,4-triazol-3-yl)benzamide]
Second: O=C(NCc1ccc(C(F)(F)F)cc1Cl)c1ccc(-c2cccnc2)cc1 [Example 2-28, N-[2-chloro-4-(trifluoromethyl)benzyl]-4-(3-pyridinyl)benzamide]
The activation at 10 µM of the first is higher: 48% for the first, 22% for the second.
